# Tests used:
# [1] = Direct MG-trapping activity by HPLC; conditions: compound 0.1 mM, MG 0.1 mM, PBS pH 7.4, 37 °C, 24 h; HPLC of 2-MQ
# Description: Figure 3 The percentage of MG-trapping abilities of isolated compounds (0.1 mM). The results are presented as the mean ± SEM for n = 3. Different letters show significant differences, as analyzed by ANOVA, with Duncan’s post hoc test (p < 0.05).
# The ability of the isolated compounds to trap MG was carried out, according to our previous report. The reaction mixture of MG (0.1 mM), isolated compound (0.1 mM in DMSO) and 0.1 M PBS (pH 7.4) was incubated at 37 °C for 24 h. The quantitative amount of the remaining MG was determined by derivatization with o-phenylenediamine (o-PDA) to convert to 2-methylquinoxaline (2-MQ). Then, 2-MQ obtained was measured by HPLC using 5-methylquinoxaline (5-MQ) as an internal standard. The mixture comprising 100 µL of o-PDA (20 mM) and 100 µL of 5-MQ (5 mM) was added into the sample vials, and incubated at 25 °C for 30 min. HPLC analysis was performed on a Shimadzu HPLC system (binary pump; model LC-10A, an auto-injector; model SIL-10A, and a UV detector; model SPD-10A) equipped with an Inertsil ODS-3 V C18 column (4.6 × 150 mm, 5 μm particle diameter). The column was flushed with a mixture of 1:1 methanol–water at a flow rate of 1 mL/min, and a 10 μL of injection volume. The overall running time was 15 min, and the wavelength used for detection was 315 nm. The area under each chromatogram peak, 2-MQ and 5-MQ, was calculated with an LC solution program. Peak integrality proportions of 2-MQ to 5-MQ were utilized for quantitative examination. The amount of MG was calculated by utilizing the standard curve of 2-MQ/5-MQ proportion. AG was utilized as a positive control. The percentage MG-trapping was calculated utilizing the formula below:(2) %MG−trapping=100−[Amount of (MG in sample−MG in positive control)/Amount of MG in positive control×100]
# [2] = system: MG-derived AGEs formation in BSA; assay: In vitro glycation of BSA by MG-BSA assay (fluorescent-AGEs formation); assay type: biochemical, bovine; conditions: compound 0.1 mM, BSA 10 mg/mL, MG 0.25 mM, PBS pH 7.4, 37 °C, 24 h; fluorescence ex 355/em 460 nm
# Description: All isolated compounds were evaluated for their inhibitory effect on the fluorescent-AGEs formation after incubation with bovine serum albumin (BSA) and MG for 24 h (Figure 2).
# Figure 2 Advanced glycation-end products (AGEs) inhibition activity of aminoguanidine (0.1 mM) and isolated compounds (0.1 mM) on MG-derived AGEs formation inhibition in BSA. The results are presented as mean ± SEM for n = 3. Different letters show significant differences analyzed by ANOVA with Duncan’s post hoc test (p < 0.05).
# Glycated BSA was carried out according to our previous study. The mixture of bovine serum albumin (BSA, 10 mg/mL), isolated compound (0.1 mM in dimethyl sulfoxide, DMSO), and methylglyoxal (MG, 0.25 mM) in 0.1 M phosphate buffer solution (PBS, pH 7.4) was incubated at 37 °C for 24 h. The glycated BSA was monitored by a spectrofluorometer (Fluroskan Ascent FL, Thermo Scientific, Barrington, IL, USA) at the excitation wavelength of 355 nm, and an emission wavelength of 460 nm. Aminoguanidine hydrochloride (AG) was utilized as a positive control. The percentage inhibition of MG-derived AGE formation was calculated by utilizing the formula below:(1) Inhibition of AGEs formation (%)=(FC−FCB)−(FS−FSB)/FC−FCB×100 where FC and FCB are the fluorescent intensities of the control with and without MG, respectively. FS and FSB are the fluorescent intensities of the sample with and without MG, respectively.
# [3] = Direct MG-trapping activity by HPLC; conditions: against methylglyoxal
# rat intestinal maltase = assay: α-Glucosidase inhibitory activity and kinetic study, maltase; assay type: biochemical
# Description: (§1) The α-glucosidase (from rat intestine) inhibitory effect was evaluated, utilizing our previous study. Rat intestinal maltase and sucrase, a crude enzyme solution, was prepared from rat intestinal acetone powder. A solution of rat intestinal acetone powder (1 g) in 0.9% NaCl solution (30 mL) was centrifuged (12,000 rpm) for 30 min, and then the aliquot obtained was used for the assay. The mixture of 10 μL of isolated compounds (1 mg/mL in DMSO), 30 μL of the phosphate buffer (0.1 M, pH 6.9), and 20 μL of the substrate solution (10 mM for maltose and 100 mM for sucrose in phosphate buffer) was added to a glucose assay kit (80 μL) and the crude enzyme solution (20 μL), which then was incubated at 37 °C for 10 min and 40 min for maltose and sucrose, respectively. The enzymatic activity was measured at 503 nm by using a microplate reader, model 3550 UV. The percentage inhibition was calculated by [(Ac − As)/Ac] × 100, where Ac is the absorbance of the control, and As is the absorbance in the presence of sample. The results were reported as the IC50 value, and the experiment was carried out in triplicate. Acarbose® was used as a standard control.
# (§2) The kinetic analysis of pinocembrin was determined by using an increasing concentration of substrates maltose (2–10 mM) and sucrose (20–100 mM), and a Lineweaver–Burk plot was performed to determine the type of inhibition. The secondary plot was utilized to determine the Ki and Ki′ values, which were replotted between the slope and intercept from the Lineweaver–Burk plot vs the various concentrations of pinocembrin.
# rat intestinal sucrase = biological target: T1, rat intestinal sucrase (Rattus norvegicus, UniProt P23739); assay: α-Glucosidase inhibitory activity and kinetic study, sucrase; assay type: biochemical
# T1 construct: a crude enzyme solution, was prepared from rat intestinal acetone powder; from tissue; host or cells: rat intestine (acetone powder, crude extract)
# Description: as §1, §2
# T1 sequence (P23739 whole entry): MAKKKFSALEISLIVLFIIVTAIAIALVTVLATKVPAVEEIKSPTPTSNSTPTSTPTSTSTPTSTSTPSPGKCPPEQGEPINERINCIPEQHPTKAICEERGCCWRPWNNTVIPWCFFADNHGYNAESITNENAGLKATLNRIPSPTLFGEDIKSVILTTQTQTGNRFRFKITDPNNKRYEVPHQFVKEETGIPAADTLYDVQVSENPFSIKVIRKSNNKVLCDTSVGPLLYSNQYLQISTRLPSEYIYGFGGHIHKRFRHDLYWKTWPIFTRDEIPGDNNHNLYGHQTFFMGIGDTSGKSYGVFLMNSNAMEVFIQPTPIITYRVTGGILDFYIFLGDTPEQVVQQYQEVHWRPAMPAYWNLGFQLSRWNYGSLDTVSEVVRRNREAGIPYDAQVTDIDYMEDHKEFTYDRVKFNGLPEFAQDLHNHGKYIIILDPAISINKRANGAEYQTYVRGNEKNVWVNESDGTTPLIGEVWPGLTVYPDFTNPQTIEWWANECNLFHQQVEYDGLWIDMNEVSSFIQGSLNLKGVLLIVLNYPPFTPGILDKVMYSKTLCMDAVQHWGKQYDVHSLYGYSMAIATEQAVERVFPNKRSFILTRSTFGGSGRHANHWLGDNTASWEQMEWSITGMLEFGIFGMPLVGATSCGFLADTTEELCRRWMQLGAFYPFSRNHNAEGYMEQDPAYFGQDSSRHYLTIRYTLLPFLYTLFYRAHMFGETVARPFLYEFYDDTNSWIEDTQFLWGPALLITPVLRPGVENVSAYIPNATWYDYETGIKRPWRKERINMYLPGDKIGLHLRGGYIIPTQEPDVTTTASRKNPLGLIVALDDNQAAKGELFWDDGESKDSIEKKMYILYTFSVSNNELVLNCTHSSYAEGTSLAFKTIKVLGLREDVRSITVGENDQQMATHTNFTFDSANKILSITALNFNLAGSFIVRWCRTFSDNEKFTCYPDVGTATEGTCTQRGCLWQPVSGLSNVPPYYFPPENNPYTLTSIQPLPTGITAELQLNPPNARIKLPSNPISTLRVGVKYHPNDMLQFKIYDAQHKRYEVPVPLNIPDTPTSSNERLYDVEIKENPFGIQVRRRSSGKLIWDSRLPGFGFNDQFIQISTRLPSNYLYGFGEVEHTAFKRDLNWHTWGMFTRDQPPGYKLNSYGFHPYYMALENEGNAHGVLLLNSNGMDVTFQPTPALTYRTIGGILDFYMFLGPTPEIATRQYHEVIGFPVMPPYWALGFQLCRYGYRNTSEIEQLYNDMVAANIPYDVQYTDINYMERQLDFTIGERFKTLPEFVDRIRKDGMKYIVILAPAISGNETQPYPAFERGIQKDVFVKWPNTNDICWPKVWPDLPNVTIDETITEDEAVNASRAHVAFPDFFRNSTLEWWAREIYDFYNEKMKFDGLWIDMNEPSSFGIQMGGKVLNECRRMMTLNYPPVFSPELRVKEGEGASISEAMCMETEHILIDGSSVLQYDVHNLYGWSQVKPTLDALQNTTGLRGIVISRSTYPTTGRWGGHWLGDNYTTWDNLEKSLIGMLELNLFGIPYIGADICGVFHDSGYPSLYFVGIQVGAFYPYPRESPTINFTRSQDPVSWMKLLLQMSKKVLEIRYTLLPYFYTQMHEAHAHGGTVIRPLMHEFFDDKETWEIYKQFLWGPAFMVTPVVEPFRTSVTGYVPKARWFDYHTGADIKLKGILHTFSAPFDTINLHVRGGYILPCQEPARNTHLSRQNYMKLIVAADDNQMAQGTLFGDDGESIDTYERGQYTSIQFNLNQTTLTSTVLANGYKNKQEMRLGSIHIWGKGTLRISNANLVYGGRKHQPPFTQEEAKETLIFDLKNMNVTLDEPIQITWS
Compound,"MG-trapping activity, percentage related to AG (100%) [1] [%]",Inhibition of MG-derived AGEs formation [2] [%],also measured
"Cl.N=C(N)NN [AG, Aminoguanidine hydrochloride, reference compound]",100,28,–
"O=C1C[C@@H](c2ccccc2)Oc2cc(O)cc(O)c21 [compound 1, pinocembrin]",109,38,"EC50 [3]: 63.2 ± 10.1 µM; Inhibition Type (rat intestinal maltase; maltase, Lineweaver–Burk plot): mixed-type; Ki (rat intestinal maltase; maltase, dissociation constant of EI complex, secondary plot of slope): 93 µM; Ki (rat intestinal maltase; maltase, dissociation constant of ESI complex, secondary plot of intercept): 138 µM; IC50 (rat intestinal maltase; rat intestinal maltase, substrate maltose, read-out: IC50 against maltase): 350 ± 21 µM; IC50 (rat intestinal sucrase; rat intestinal sucrase, substrate sucrose, read-out: IC50 against sucrose): 390 ± 20 µM; Inhibition Type (rat intestinal sucrase; sucrase, Lineweaver–Burk plot): mixed-type inhibition; Ki (rat intestinal sucrase; sucrase, dissociation constant of EI complex): 51 µM; Ki (rat intestinal sucrase; sucrase, dissociation constant of ESI complex): 253 µM"
"COc1cc(O)c2c(c1)O[C@H](c1ccccc1)CC2=O [compound 2, pinostrobin]",5,19,–
"COc1cc(O)cc(O)c1C(=O)/C=C/c1ccccc1 [compound 4, cardamomin]",28,44,–
"COc1cc2c(c(O)c1C(=O)/C=C/c1ccccc1)C=CC(C)(CCC=C(C)C)O2 (stereo not drawn) [compound 5, boesenbergin B]",19,39,–
"COc1cc(O)c(C(=O)[C@@H]2[C@H](CC=C(C)C)C(C)=CC[C@H]2c2ccccc2)c(O)c1 [compound 6, panduratin A]",60,43,–
"COc1cc(O)cc(O)c1C(=O)C1C(CC=C(C)C)C(C)=CCC1c1ccccc1 (stereo not drawn) [compound 7, isopanduratin A]",9,36,–
"COc1cc(/C=C/c2ccccc2)oc(=O)c1 [compound 8, demethoxyyangonin]",23,46,–
alpinetin [compound 3],14,50,–

# From PMC6321453, “Identification of Pinocembrin as an Anti-Glycation Agent and α-Glucosidase Inhibitor from Fingerroot (Boesenbergia rotunda): The Tentative Structure–Activity Relationship towards MG-Trapping Activity” (Molecules, 2018)
